In patent publication US20110306035A1, “Methods and Compositions for Detection of a Pathogen, Disease, Medical Condition, or Biomarker Thereof” (priority 2008, published 2011):

Experiments:
[1] = biological target: Echovirus 3C recombinant protease (Echovirus 30, UniProt Q9WN78); experiment: Echovirus 3C recombinant protease activity with inhibitors or inhibitor cocktails (Camb2); assay type: biochemical
Procedure: Phosphoramidon is a strong inhibitor of many bacterial Metalloendoproteinases, thermolysin, and elastase, but a weak inhibitor of collagenase. […] Phosphoramidon was tested using the Echovirus 3C recombinant and pneumococcus (types 6B and 23F) spiking systems.
(§1) The experiment shown in FIG. 22A was performed in the presence of Echo recombinant protease (50 nM) or in the presence of two different strains of pneumococcus 6B and 23F (lysate 1 μl). The inhibitory effect was measured in the presence/absent of Phosphoramidon (20 uM).
The experiment shown in FIG. 22B was performed in the presence of Echo recombinant protease (1:18), in the presence of meningococcus (lysate 3 ul) or in the presence of blood (10 ul).
Enterovirus 3C protease (Echo), WBC lysate (corresponding to 2×10^3 cells per test), Pneomococc lysate (corresponding to 1×10^6 bacteria per test) and Meningococc lysate (corresponding to 1×10^8 bacteria per test) (5 ul each) were spiked into artificial-CSF (45 ul), followed by the addition of the indicated inhibitor cocktails (5 ul each): I8, I9a=I8+Phosphoramidon (90 μM), I9b=I8+2-6-pyridinedicarboxylic acid (2.5 mM) and I10=I8+Phosphoramidon+2-6-pyridinedicarboxylic acid. The samples with the indicated inhibitor cocktails were incubated at RT for 2.5 min followed by the addition of 50 ul 2× reaction buffer containing the substrate camb2 (final concentration 2 μM). […]

[2] = system: blood; conditions: 2,6-pyridinedicarboxylic acid 2.5 mM; blood 10 ul
[3] = system: meningococcus; experiment: Meningococcus lysate spiking system (Camb2 cleavage); assay type: biochemical, Neisseria meningitides; conditions: 2,6-pyridinedicarboxylic acid 2.5 mM; lysate 3 ul
Excerpt: (§2) There have been no reports of co-infection of viral and bacterial meningitis. Thus, a test for viral meningitis infection implies a negative result for bacterial meningitis. However, CSF samples infected with bacterial meningitis may have background non-specific activity that leads to false positive results in tests for enterovirus, thereby confusing the results. Background non specific activity in CSF samples could be related to bacterial proteases that can cleave the substrate, leading to a positive signal. The most frequent bacterial meningitis found in CSF include: Streptococcus pneumonia, Neisseria meningitides (meningococc), Haemophilus influenza and Klebsiella pneumonia. Accordingly, Pneumococcus (Streptococcus pneumonia, two different strains 6B and 23F) and meningococcus (Neisseria meningitides) were spiked to simulate the background non specific activity observed in CSF samples and to identify inhibitors to reduce it. A total of more than 40 inhibitors from different groups of inhibitors were tested.
The experiment shown in FIG. 22B was performed in the presence of Echo recombinant protease (1:18), in the presence of meningococcus (lysate 3 ul) or in the presence of blood (10 ul). […]

[4] = system: pneumococcus 23F; experiment: Pneumococcus 23F lysate spiking system (Camb2 cleavage); assay type: biochemical, Streptococcus pneumonia
Excerpt: as §2, §1

[5] = system: Enterovirus 3C protease; experiment: Enterovirus assay in clinical CSF samples (vs RT-PCR); assay type: biochemical; conditions: bacterial samples 23-25; new assay conditions
Procedure: CSF samples obtained from two clinical sites, were tested for presence of enterovirus according to the method of the invention but before the assay conditions were optimized. The samples were also tested with a combination of RT-PCR and other clinical parameters. […] Samples were considered hemolytic if red blood cell (RBC) count was above 100/ul (for the one set) or if the sample's color was reddish (for the other set, RBC count not provided).
Samples whose reaction rate exceeded the cutoff value were considered positive, and those below this value were considered negative.
Each measurement was performed by using 50 uL of CSF sample. 5 ul of inhibitor cocktail (I8) was added to the samples and incubated for 2.5 min. The reaction was initiated by the addition of 50 uL 2× reaction buffer (“2× RB”, 50 mM HEPES pH7.5, 1.8M Na2SO4, 300 mM NaCl, 10% Glycerol, 10 mM EDTA and 10 mM EGTA each) containing the substrate camb2 (final concentration 2 uM).
Thaw samples at room temperature for 30 min in a biological hood. • 2. Prepare assay layout according to the number of samples to be run in the BMG fluorimeter and the well composition shown in Table 54
Prepare sufficient amount of inhibitor cocktail I10 (150 ul for 24 wells). • 4. […] Add Echo protease to p.c. (positive control) wells. • 6. […] Add inhibitor cocktail to all wells. • 8. Add 50 ul 2× RB+substrate to all the wells. • 9. […]

[6] = system: pneumococcus 6B; experiment: Pneumococcus 6B lysate spiking system (Camb2 cleavage); assay type: biochemical, Streptococcus pneumonia
Excerpt: as §2, §1

[7] = Phosphoramidon 20 uM, lysate 1 μl
[8] = at least three independent experiments

Echovirus 3C recombinant protease, sequence (Q9WN78 1550-1732): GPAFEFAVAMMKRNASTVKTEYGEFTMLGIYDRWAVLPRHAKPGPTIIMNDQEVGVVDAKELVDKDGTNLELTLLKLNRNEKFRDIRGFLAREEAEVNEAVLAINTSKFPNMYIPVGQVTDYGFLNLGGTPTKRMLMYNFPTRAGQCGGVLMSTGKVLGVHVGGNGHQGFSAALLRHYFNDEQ

| SMILES | inhibition at 2500 µM [1] | inhibition of blood activity [2] | inhibition of meningococcus activity [3] | inhibition of pneumococcus activity [4, 7] | inhibition of pneumococcus activity [4, 8] | effect on unspecific background activity of bacterial CSF samples [5] | inhibition at 20 µM ([1]; Phosphoramidon 20 uM, Echo recombinant protease 50 nM) | inhibition of pneumococcus activity [6, 7] | inhibition of pneumococcus activity [6, 8] |
| --- | --- | --- | --- | --- | --- | --- | --- | --- | --- |
| O=C(O)c1cccc(C(=O)O)n1 [2,6-pyridinedicarboxylic acid] | 4.5% | 0% | 81% |  |  |  |  |  |  |
| CC(C)C[C@H](NP(=O)(O)O[C@@H]1O[C@@H](C)[C@H](O)[C@@H](O)[C@H]1O)C(=O)N[C@@H](Cc1c[nH]c2ccccc12)C(=O)O [Phosphoramidon] |  |  |  | 80% | ~90% | could not abolish | 7% | 91% | ~90% |
